Data published in patent publication US20260000685A1, “PHARMACEUTICAL COMPOSITION FOR PREVENTING OR TREATING DEGENERATIVE BRAIN DISEASES, COMPRISING CANNABINOIDS AS ACTIVE INGREDIENT, AND USES THEREOF” (NEOCANNBIO CO., LTD., priority 2022, published 2026).

Tests used:
[1] = tested on: phosphorylated tau (p-Tau); experiment: Western blotting of Tau/p-Tau in Aβ1-42-treated primary neuronal cells; format: cell-based, ICR mice; conditions: with Aβ1-42 (5 μM), 24 hours; compared to Aβ1-42 alone; FIG. 7
Description: (§1) To conduct Western blotting, tissues were homogenized in radioimmunoprecipitation assay buffer (Cell Signaling) to acquire tissue lysates. Tissue protein concentrations were determined using the Bio-Rad protein assay (Bio-Rad, Hercules, CA, USA), and Western blot analysis was conducted using 80-120 μg of protein. Next, the Western blotting samples prepared using the proteins were separated using 12% SDS-PAGE and transferred to a polyvinylidene fluoride membrane (PVDF) (Merck Millipore, Burlington, MA, USA; 0.4 μm). The PVDF was blocked with tris-buffered saline including 5% bovine serum albumin and Tween-20, and incubated with primary antibodies overnight at 4° C. After primary antibody incubation, the samples were incubated with HRP-conjugated secondary antibody (Sigma; 1:5000) for 1 hour at room temperature, and immunodetection was conducted using an enhanced chemiluminescence detection kit (GE Healthcare, Chicago, IL, USA).
Specifically, primary neuronal cells derived from ICR mice were cultured for 6 days, and then treated with CBDA, THCA, THC, or CBN compounds while treating with Aβ1-42 (5 μM), and treated together for 24 hours. Next, to confirm the expression levels of Tau and phosphorylated Tau (p-Tau) in the cells, Western blotting was conducted using the method disclosed in Example 4 above.

[2] = tested on: p-CREB (CAMP Response Element-Binding Protein); experiment: Western blot of p-CREB in hippocampal tissues of animal model; format: in vivo, ICR mice; conditions: day 19; compared to Aβ1-42 treated group; FIG. 17
Description: as §1
Specifically, hippocampal tissues were acquired on day 19 from the animal models created in Example 7 above (PBS treated group, Aβ1-42 treated group, CBDA treated group, and THCA treated group), and Western blot analysis was conducted on the hippocampal tissues to evaluate the expression levels of BDNF, p-CREB, and p-TrKB.

[3] = tested on: Alzheimer's animal model (Aβ1-42 treated mice); experiment: Morris water maze test in Aβ1-42 Alzheimer's animal model; format: in vivo, ICR mice; conditions: compared to mice treated only with Aβ1-42; for learning ability (finding submerged platform during training session): CBDA 6.25 μM or THCA 12.5 μM, 3 μL/mouse into hippocampus, FIGS. 11 and 12; for time spent in the target quadrant (probe test) / time spent in the platform area (probe test) / number of times crossed the platform area (probe test): probe test on the 5th day; for time spent in the target quadrant (probe test): FIG. 13A; for time spent in the platform area (probe test): FIG. 13B; for number of times crossed the platform area (probe test): FIG. 13C
Description: Female ICR mice (8 weeks old) used in the experiment were purchased from Coretech (Pyeongtaek, Korea). Mice were housed in the animal care facility of the Korea Institute of Science and Technology (KIST) (temperature 22±2° C., humidity 40-60%, 12-hour light/dark cycle). Mice were housed in an environment with free access to food and water. All animal experiments were conducted in accordance with the protocol approval of the Animal Ethics Committee of our institution.
Next, to create an animal model, mice were randomly selected and divided into four groups as follows: PBS treated group (PBS+PBS), Aβ1-42 treated group (Aβ1-42 +PBS) (Alzheimer's animal model), CBDA treated group (Δβ1-42+CBDA (6.25 µM, 3 μL/mouse)), and THCA treated group (Δβ1-42+THCA (12.5 μM, 3 μL/mouse)).
After anesthetizing the isolated mice by intraperitoneal (i.p.) injection of avertin (250 mg/kg), the mice were fixed in a stereotaxic apparatus, and CBDA, THCA, Aβ1-42, or PBS (3 μl/15 min/mouse) were gradually delivered to the hippocampus using a Hamilton syringe (coordinates of bregma: mediolateral (ML)=1.30 mm, anteroposterior (AP)=−2.00 mm, dorsoventral=−2.20 mm).
Specifically, a circular tank (diameter 90 cm, height 50 cm, water temperature 22 ±2° C.) was used for the test, and the tank consisted of four quadrants filled with water. An escape platform (diameter 6 cm, height 29 cm) was submerged 1 cm below the water surface in the center of one of the four quadrants. Experimental mice were trained for 4 days to learn and memorize visual cues placed outside the tank indicating the platform location. The swimming paths of the experimental mice were recorded with a camera connected to a video recorder and path tracking software (EthoVision; Noldus Information Technology, Wageningen, The Netherlands). Four tests were conducted daily during the 4-day training period. During each trial, the experimental mice were allowed 60 seconds to find the hidden platform and an additional 30 seconds to remain on the platform. […] The average time it took each experimental mouse to find the platform (average escape latency) was recorded. Probe tests were conducted 4 days later in the same manner without the platform. Each experimental mouse was allowed to move freely for 60 seconds, which was recorded. Videos were analyzed using tracking software (EthoVision; Noldus Information Technology, Wageningen, The Netherlands) to calculate the time spent in the target quadrant area and the number of crossings in the platform area.

[4] = tested on: primary cortical neuron cells; experiment: Intracellular calcium concentration in neuronal cells (fluo-4 AM fluorescence imaging); format: cell-based; conditions: CBDA (6.25 μM), THCA (12.5 μM), THC (12.5 μM) with Aβ1-42 (5 μM), 24 hours; compared to Aβ1-42 alone; FIG. 8 and 9
Description: Specifically, primary cortical neuron cells were seeded in 96-wells at 5×10^5 cells per well and cultured for 6 days. […] Next, to measure the concentration of calcium ions in neuronal cells by detecting Ca^2+ using fluorescence imaging, the cells were washed with PBS and treated with 10 μM Ca^2+ indicator fluo-4 AM (Thermo) for […]. The stained sections were washed with PBS, covered with Prolong Gold Antifide Reagent (Invitrogen, Carlsbad, CA, USA) including DAPI nuclear stain, and observed using a microscope (Carl Zeiss, Oberkochen, Germany). Fluo-4 AM fluorescence signal intensity was measured using the Image J analysis program (National Institute of Health, Bethesda, […], USA).

amyloid beta (Aβ) = experiment: Western blotting of Aβ expression in Aβ1-42-treated primary neuronal cells; format: cell-based, ICR mice; conditions: with Aβ1-42 (5 μM), 24 hours; for expression level of oligomeric Aβ / expression level of polymeric Aβ: CBDA (6 μM) or THCA (5 μM), FIG. 6; for expression level of AB: compared to Aβ1-42 alone, FIG. 5
Description: Specifically, primary neuronal cells derived from ICR mice were cultured for 6 days, and then treated with CBDA, THCA, THC, or CBN compounds while treating with Aβ1-42 (5 μM), and treated together for 24 hours. Next, Western blotting was conducted to confirm the expression levels of APP (Amyloid Precursor Protein), polymeric Aβ, and oligomeric AB in the cells.
as §1

Structure (SMILES) | expression level of p-Tau [1] | phosphorylation level of p-Tau [1] | expression level of p-CREB in hippocampal tissues [2] | learning ability (finding submerged platform during training session) [3] | time spent in the target quadrant (probe test) [3] | time spent in the platform area (probe test) [3] | number of times crossed the platform area (probe test) [3] | intracellular calcium ion concentration [4] | expression level of oligomeric Aβ (amyloid beta (Aβ)) | expression level of polymeric Aβ (amyloid beta (Aβ)) | expression level of AB (amyloid beta (Aβ))
C=C(C)[C@@H]1CCC(C)=C[C@H]1c1c(O)cc(CCCCC)c(C(=O)O)c1O [CBDA] | significantly reduced | significantly reduced | significantly increased | significantly enhanced | spent more time | spent more time | increased | significantly reduced | significantly reduced | significantly reduced | significantly reduced
CCCCCc1cc2c(c(O)c1C(=O)O)[C@@H]1C=C(C)CC[C@H]1C(C)(C)O2 [THCA, (6aR, 10aR)-1-Hydroxy-6,6,9-trimethyl-3-pentyl-6a,7,8,10a-tetrahydro-6H-benzo[c]chromene-2-carboxylic acid] | significantly reduced | significantly reduced | significantly increased | significantly enhanced | spent more time | spent more time | increased | significantly reduced | significantly reduced | significantly reduced | significantly reduced
